These compounds were tested against T1, chimeric human H3 receptor (Homo sapiens, UniProt Q9Y5N1, E19D) (assay: Chimeric human H3 receptor GTP binding assay (agonist-stimulated GTP-gamma35S binding, Example 7)). Settings: assay of Example 7; symbol * in column headed Ki of Table II; read-out: Ki.
T1 construct: made in house; host or cells: Sf9 insect cells (baculovirus infection); P2 membrane preparation
T1 sequence (Q9Y5N1 with tags, fused parts or gaps E19D): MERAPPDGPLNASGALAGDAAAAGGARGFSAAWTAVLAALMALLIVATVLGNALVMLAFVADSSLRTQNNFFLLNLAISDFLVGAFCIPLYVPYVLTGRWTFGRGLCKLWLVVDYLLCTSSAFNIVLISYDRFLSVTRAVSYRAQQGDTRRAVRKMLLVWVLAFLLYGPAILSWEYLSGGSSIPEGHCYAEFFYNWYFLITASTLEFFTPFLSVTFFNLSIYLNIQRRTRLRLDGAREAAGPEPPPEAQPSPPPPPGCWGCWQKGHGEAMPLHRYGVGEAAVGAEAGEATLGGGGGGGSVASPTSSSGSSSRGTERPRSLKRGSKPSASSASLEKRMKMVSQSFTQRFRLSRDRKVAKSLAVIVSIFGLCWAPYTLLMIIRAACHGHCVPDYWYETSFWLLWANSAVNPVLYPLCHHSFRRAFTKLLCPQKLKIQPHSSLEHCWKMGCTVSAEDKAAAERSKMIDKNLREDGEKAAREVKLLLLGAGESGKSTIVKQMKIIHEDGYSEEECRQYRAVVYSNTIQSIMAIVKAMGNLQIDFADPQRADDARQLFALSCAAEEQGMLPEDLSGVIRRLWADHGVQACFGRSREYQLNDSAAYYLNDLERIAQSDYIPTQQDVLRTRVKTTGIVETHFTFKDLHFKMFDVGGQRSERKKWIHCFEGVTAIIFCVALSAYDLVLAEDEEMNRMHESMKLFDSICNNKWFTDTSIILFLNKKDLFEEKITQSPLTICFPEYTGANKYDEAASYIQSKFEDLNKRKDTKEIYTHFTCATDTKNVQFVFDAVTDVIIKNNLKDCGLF
Format: biochemical
Source text: This Example illustrates a representative assay for evaluating agonist-stimulated GTP-gamma^35S binding (“GTP binding”) activity. […] This agonist-stimulated GTP binding activity can also be used to detect partial agonism mediated by antagonist compounds. A compound analyzed in this assay is referred to herein as a “test compound.”
Four independent baculoviral stocks (one directing the expression of the chimeric human H3 receptor and three directing the expression of each of the three subunits of a heterotrimeric G-protein) are used to infect a culture of Sf9 cells as described above. P2 membranes are prepared as described above, and agonist-stimulated GTP binding on the P2 membranes is assessed using histamine (Sigma Chemical Co., St. Louis, Mo.) as agonist in order to ascertain that the receptor/G-protein-alpha-beta-gamma combination(s) yield a functional response as measured by GTP binding. P2 membranes are resuspended by Dounce homogenization (tight pestle) in GTP binding assay buffer (50 mM Tris pH 7.4, 120 mM NaCl, 5 mM MgCl2, 2 mM EGTA, 1 mg/ml BSA, 0.2 mg/ml bacitracin, 0.02 mg/ml aprotinin, 0.01 mg/ml saponin, 10 μM GDP) and added to assay tubes at a concentration of 35 μg protein/reaction tube. […] In competition experiments, non-radiolabeled test compounds are added to separate reactions at concentrations ranging from 10^−10 M to 10^−6 M along with 1 μM histamine to yield a final volume of 0.20 ml.
Neutral antagonists are antagonists that are substantially free of inherent agonist activity, and include those test compounds that reduce the histamine-stimulated GTP binding activity towards, but not below, baseline levels. In contrast, in the absence of added histamine, inverse agonists reduce the GTP binding activity of the receptor-containing membranes below baseline.
After a 60-min incubation at room temperature, reactions are terminated by vacuum filtration over WHATMAN GF/C filters (pre-soaked in wash buffer, 0.1% BSA) followed by washing with ice-cold wash buffer (50 mM Tris pH 7.4, 120 mM NaCl). The amount of receptor-bound (and thereby membrane-bound) GTP-gamma^35S is determined by measuring the filter-bound radioactivity, preferably by liquid scintillation spectrometry of the washed filters. […] Data is expressed as percent above basal (baseline). The results of GTP binding experiments are analyzed using SIGMAPLOT software (SPSS Inc., Chicago, Ill.).
IC50 values are calculated by non-linear regression analysis of dose-response curves using Kaleidograph (Synergy Software, Reading, Pa.).
For `CC(=O)c1ccc(N2CCN(CC(=O)N3CCN(C4CCC4)CC3)[C@@H](C)C2)cc1` [Compound 307, 1-(4-{4-[2-(4-cyclobutylpiperazin-1-yl)-2-oxoethyl]-3-methylpiperazin-1-yl}phenyl)ethanone], the Ki was < 1000 nM. In the case of `CC(=O)c1cccc(-c2ccc(N3CCN(CC(=O)N4CCN(C5CCC5)CC4)CC3)cc2)c1` [Compound 308, 1-(4′-{4-[2-(4-cyclobutylpiperazin-1-yl)-2-oxoethyl]piperazin-1-yl}biphenyl-3-yl)ethanone], the Ki is reported as < 1000 nM. In the case of `CC(=O)c1ccc(-c2ccc(N3CCN(CC(=O)N4CCN(C5CCC5)CC4)CC3)cc2)cc1` [Compound 309, 1-(4′-{4-[2-(4-cyclobutylpiperazin-1-yl)-2-oxoethyl]piperazin-1-yl}biphenyl-4-yl)ethanone], the Ki is reported as < 1000 nM. With `CC(=O)c1ccc(N2CCN(CC(=O)N3CCN(C4CCC4)CC3)CC2)c2ccccc12` [Compound 310, 1-(4-{4-[2-(4-cyclobutylpiperazin-1-yl)-2-oxoethyl]piperazin-1-yl}-1-naphthyl)ethanone] the Ki was < 1000 nM. With `CC(=O)c1ccc(N2CCN(CC(=O)N3CCN(C4CCC4)CC3)CC2)c(F)c1` [Compound 311, 1-(4-{4-[2-(4-cyclobutylpiperazin-1-yl)-2-oxoethyl]piperazin-1-yl}-3-fluorophenyl)ethanone] the Ki was < 1000 nM. For `CCC(=O)c1ccc(N2CCN(CC(=O)N3CCN(C4CCC4)CC3)CC2)cc1` [Compound 312, 1-(4-{4-[2-(4-cyclobutylpiperazin-1-yl)-2-oxoethyl]piperazin-1-yl}phenyl)propan-1-one], the Ki was < 1000 nM. `CC(C)C(=O)c1ccc(N2CCN(CC(=O)N3CCN(C4CCC4)CC3)CC2)cc1` [Compound 313, 1-(4-{4-[2-(4-cyclobutylpiperazin-1-yl)-2-oxoethyl]piperazin-1-yl}phenyl)-2-methylpropan-1-one] was tested, and the Ki was < 1000 nM. In the case of `CC(C)(C)C(=O)c1ccc(N2CCN(CC(=O)N3CCN(C4CCC4)CC3)CC2)cc1` [Compound 314, 1-(4-{4-[2-(4-cyclobutylpiperazin-1-yl)-2-oxoethyl]piperazin-1-yl}phenyl)-2,2-dimethylpropan-1-one], the Ki is reported as < 1000 nM. For `CC(=O)c1ccc(N2CCN(CC(=O)N3CCN(C4CCC4)CC3)CC2)cc1` [Compound 315, 1-(4-{4-[2-(4-cyclobutylpiperazin-1-yl)-2-oxoethyl]piperazin-1-yl}phenyl)ethanone], the Ki was < 1000 nM. With `O=C(CN1CCN(c2ccc(C(=O)N3CCCCCC3)cc2)CC1)N1CCN(C2CCC2)CC1` [Compound 317, 1-(4-{4-[2-(4-cyclobutylpiperazin-1-yl)-2-oxoethyl]piperazin-1-yl}benzoyl)azepane] the Ki was < 1000 nM. With `COc1cc(N2CCN(CC(=O)N3CCN(C4CCC4)CC3)CC2)ccc1C(C)=O` [Compound 318, 1-(4-{4-[2-(4-cyclobutylpiperazin-1-yl)-2-oxoethyl]piperazin-1-yl}-2-methoxyphenyl)ethanone] the Ki was < 1000 nM. `COc1cc(C(C)=O)ccc1N1CCN(CC(=O)N2CCN(C3CCC3)CC2)CC1` [Compound 319, 1-(4-{4-[2-(4-cyclobutylpiperazin-1-yl)-2-oxoethyl]piperazin-1-yl}-3-methoxyphenyl)ethanone] was tested, and the Ki was < 1000 nM. `O=C(CN1CCN(c2ccc(N3CCCC3=O)cc2)CC1)N1CCN(C2CCC2)CC1` [Compound 320, 1-(4-{4-[2-(4-cyclobutylpiperazin-1-yl)-2-oxoethyl]piperazin-1-yl}phenyl)pyrrolidin-2-one] was tested, and the Ki was < 1000 nM. In the case of `CC(=O)c1ccc(N2CCN(CC(=O)N3CCN(C4CCCCC4)CC3)CC2)cc1` [Compound 321, 1-(4-{4-[2-(4-cyclohexylpiperazin-1-yl)-2-oxoethyl]piperazin-1-yl}phenyl)ethanone], the Ki is reported as < 1000 nM. In the case of `CC(=O)c1ccc(N2CCC(C(C)(C)C(=O)N3CCN(C4CCCC4)CC3)CC2)cc1` [Compound 322, 1-(4-{4-[2-(4-cyclopentylpiperazin-1-yl)-1,1-dimethyl-2-oxoethyl]piperidin-1-yl}phenyl)ethanone], the Ki is reported as < 1000 nM. With `CC(=O)c1ccc(N2CCN(C(C)C(=O)N3CCN(C4CCCC4)CC3)CC2)cc1` (stereo not drawn) [Compound 323, 1-(4-{4-[2-(4-cyclopentylpiperazin-1-yl)-1-methyl-2-oxoethyl]piperazin-1-yl}phenyl)ethanone] the Ki was < 1000 nM. `CCC(=O)c1ccc(N2CCN(CC(=O)N3CCN(C4CCCC4)CC3)CC2)cc1` [Compound 324, 1-(4-{4-[2-(4-cyclopentylpiperazin-1-yl)-2-oxoethyl]piperazin-1-yl}phenyl)propan-1-one] was tested, and the Ki was < 1000 nM. With `CC(C)C(=O)c1ccc(N2CCN(CC(=O)N3CCN(C4CCCC4)CC3)CC2)cc1` [Compound 325, 1-(4-{4-[2-(4-cyclopentylpiperazin-1-yl)-2-oxoethyl]piperazin-1-yl}phenyl)-2-methylpropan-1-one] the Ki was < 1000 nM. In the case of `CC(C)(C)C(=O)c1ccc(N2CCN(CC(=O)N3CCN(C4CCCC4)CC3)CC2)cc1` [Compound 326, 1-(4-{4-[2-(4-cyclopentylpiperazin-1-yl)-2-oxoethyl]piperazin-1-yl}phenyl)-2,2-dimethylpropan-1-one], the Ki is reported as < 1000 nM. In the case of `CC(=O)c1ccc(N2CCN(CC(=O)N3CCN(C4CCCC4)CC3)CC2)cc1` [Compound 327, 1-(4-{4-[2-(4-cyclopentylpiperazin-1-yl)-2-oxoethyl]piperazin-1-yl}phenyl)ethanone], the Ki is reported as < 1000 nM. With `CC(=O)c1ccc(N2CCN(CC(=O)N3CCN(CC(C)C)CC3)CC2)cc1` [Compound 328, 1-(4-{4-[2-(4-isobutylpiperazin-1-yl)-2-oxoethyl]piperazin-1-yl}phenyl)ethanone] the Ki was < 1000 nM. With `CC(=O)c1ccc(N2CCN(CC(=O)N3CCN(C(C)C)CC3)CC2)cc1` [Compound 329, 1-(4-{4-[2-(4-isopropylpiperazin-1-yl)-2-oxoethyl]piperazin-1-yl}phenyl)ethanone] the Ki was < 1000 nM. With `CCC(C)N1CCN(C(=O)CN2CCN(c3ccc(C(C)=O)cc3)CC2)CC1` (stereo not drawn) [Compound 330, 1-(4-{4-[2-(4-sec-butylpiperazin-1-yl)-2-oxoethyl]piperazin-1-yl}phenyl)ethanone] the Ki was < 1000 nM. With `CC(O)c1ccc(N2CC3CC2CN3CC(=O)N2CCN(C3CCC3)CC2)cc1` (stereo not drawn) [Compound 331, 1-(4-{5-[2-(4-cyclobutylpiperazin-1-yl)-2-oxoethyl]-2,5-diazabicyclo[2.2.1]hept-2-yl}phenyl)ethanol] the Ki was < 1000 nM. In the case of `CC(=O)c1ccc(N2C(=O)C3(CCN(CC(=O)N4CCN(C5CCC5)CC4)CC3)c3ccccc32)cc1` [Compound 332, 1-(4-acetylphenyl)-1′-[2-(4-cyclobutylpiperazin-1-yl)-2-oxoethyl]spiro[indole-3,4′-piperidin]-2(1H)-one], the Ki is reported as < 1000 nM. For `CC(=O)c1ccc(N2CCN(CC(=O)N3CCN(C4CCC4)CC3)CC2=O)cc1` [Compound 333, 1-(4-acetylphenyl)-4-[2-(4-cyclobutylpiperazin-1-yl)-2-oxoethyl]piperazin-2-one], the Ki was < 1000 nM. In the case of `COc1cc(N2CCN(CC(=O)N3CCN(C4CCCC4)CC3)CC2)ccc1Br` [Compound 334, 1-(4-bromo-3-methoxyphenyl)-4-[2-(4-cyclopentylpiperazin-1-yl)-2-oxoethyl]piperazine], the Ki is reported as < 1000 nM. `CCN1CCN(C(=O)CN2CCN(c3ccc(Br)c(OC)c3)CC2)CC1` [Compound 335, 1-(4-bromo-3-methoxyphenyl)-4-[2-(4-ethylpiperazin-1-yl)-2-oxoethyl]piperazine] was tested, and the Ki was < 1000 nM. `COc1cc(N2CCN(CC(=O)N3CCN(C(C)C)CC3)CC2)ccc1Br` [Compound 336, 1-(4-bromo-3-methoxyphenyl)-4-[2-(4-isopropylpiperazin-1-yl)-2-oxoethyl]piperazine] was tested, and the Ki was < 1000 nM. In the case of `CCC(C)N1CCN(C(=O)CN2CCN(c3ccc(Br)c(OC)c3)CC2)CC1` (stereo not drawn) [Compound 337, 1-(4-bromo-3-methoxyphenyl)-4-[2-(4-sec-butylpiperazin-1-yl)-2-oxoethyl]piperazine], the Ki is reported as < 1000 nM. With `O=C(CN1CCN(c2ccc(Br)cc2)CC1)N1CCN(C2CCCCC2)CC1` [Compound 338, 1-(4-bromophenyl)-4-[2-(4-cyclohexylpiperazin-1-yl)-2-oxoethyl]piperazine] the Ki was < 1000 nM. In the case of `CC(C)N1CCN(C(=O)CN2CCN(c3ccc(Br)cc3)CC2)CC1` [Compound 339, 1-(4-bromophenyl)-4-[2-(4-isopropylpiperazin-1-yl)-2-oxoethyl]piperazine], the Ki is reported as < 1000 nM. For `O=C(CN1CCN(c2ccc(-c3ccc(Cl)cc3F)cc2)CC1)N1CCN(C2CCC2)CC1` [Compound 341, 1-(4′-chloro-2′-fluorobiphenyl-4-yl)-4-[2-(4-cyclobutylpiperazin-1-yl)-2-oxoethyl]piperazine], the Ki was < 1000 nM.

Source: patent publication US7851474B2, “Dipiperazinyl ketones and related analogues” (Neurogen Corporation, priority 2005, dated 2010)
